Results: US20070135488A1, “Amlodipine nicotinate and process for the preparation thereof” (priority 2002, published 2007)
Read-outs that look alike come from different tables or passages of the source.

How the values were obtained:
[1] = Solubility measurement (water solubility and pH at saturation); type: physicochemical; settings: distilled water, room temperature; for solubility: ultrasonic waves, maximal solubilized amount
Protocol: Water solubilities were measured for amlodipine besylate prepared in accordance with U.S. Pat. No. 4,879,303 and amlodipine nicotinate obtained in Example 1. By using 50 ml of distilled water and ultrasonic waves, maximal solubilized amounts were measured at a room temperature and pHs at saturation were measured using Fischer Scientific Accument (PH meter 15).

[2] = Chemical stability (stability test under stress condition); type: physicochemical; settings: tablets in sealed vials, 50° C., 60% relative humidity, three weeks, TLC
Protocol: In order to assess the chemical stability, amlodipine besylate and amlodipine nicotinate were blended in a powder vehicle and formed into tablets. The vehicle for tablets comprised microcrystalline cellulose and anhydrous dibasic calcium phosphate in 50:50. The tablets were then stored in sealed vials at 50° C. and at 60% relative humidity for three weeks.
FIGS. 4A and 4B show H-NMR charts of amlodipine besylate before and after the stability test, respectively, and FIGS. 5A and 5B show H-NMR charts of amlodipine nicotinate before and after the stability test, respectively. The peaks on NMR of amlodipine besylate are as follows: […]

Photostability = type: physicochemical; settings: 25-30° C., 2 weeks, incandescent lamp (220V, 100 W) 30 cm above
Protocol: 1.0 g of amlodipine besylate prepared in accordance with U.S. Pat. No. 4,879,303 and 1.0 g of amlodipine nicotinate dihydrate obtained in Example 1, which were placed in glass schales (100×20 mm), were exposed at 25-30° C. for 2 weeks under an incandescent lamp (220V, 100 W) that was placed at 30 cm above the samples. […] FIGS. 6A and 6B show H-NMR charts of amlodipine besylate before and after the photostability test, respectively. The peaks on NMR of amlodipine besylate are as follows: […]

Hygroscopicity test = type: physicochemical; settings: 60% relative humidity, 50° C., 14 days
Protocol: 1.0 g of amlodipine besylate prepared in accordance with U.S. Pat. No. 4,879,303 and 1.0 g of amlodipine nicotinate dihydrate obtained in Example 1 were exposed to 60% relative humidity at 50° C. for 14 days.

[3] = Processability test (stickiness to tablet punch); type: physicochemical; settings: amount adhering to tablet punch; for Stickiness: Amlodipine(μg)/cm^2 (tablet): average from slope over runs of 50-300 tablets
Protocol: Using a conventional tablet making machinery, fifty tablets containing calcium sulphate dihydrate, microcrystalline cellulose and amlodipine nicotinate dihydrate (47.5:47.5:5) were produced. The material adhering to the tablet punch was then extracted using methanol and the amount was measured spectrometrically. This procedure was then repeated for runs of 100, 150, […], 250 and 300 tablets. After each run the amount of material adhering to the tablet punch was measured in the same process as above. The values were plotted and an average value was calculated from the slope of the line produced. The same procedure was then repeated for amlodipine besylate. The amount of amlodipine measured as adhering to the tablet punch is shown in Table 2 for amlodipine nicotinate dihydrate with relative to amlodipine besylate.

[4] = system: spontaneously hypertensive rats (SHRs); test: In vivo anti-hypertensive activity, systolic blood pressure by tail-cuff method; set-up: species or system rat; settings: SHR; for Maximal anti-hypertensive effect (change of systolic blood pressure) / Intensity (maximal effect of amlodipine nicotinate to maximal effect of amlodipine besylate) / ED20 (amount necessary for 20% decrease in the blood pressure) / Intensity (reverse ratio of ED20 values relative to amlodipine besylate): oral; for Maximal anti-hypertensive effect (change of systolic blood pressure): mean % ± S.E.M.
Protocol: Cardiovascular effects, i.e., in vivo anti-hypertensive activities, were measured for amlodipine besylate prepared in accordance with U.S. Pat. No. 4,879,303 and amlodipine nicotinate prepared in Example 1, using spontaneously hypertensive rats (SHRs), by Korea Research Institute of Chemical Technology (Screening Center, #100, Jang-dong, Yuseong-gu, Daejeon).
Male SHRs (Charles Rever Co., Japan) aged 13-14 weeks were used. Before evaluation, the SHRs were accustomed in a clean breeding chamber under conditions of a temperature of 22.5±1° C., a relative humidity of 55±5% and a lighting time of 12 hour intervals.
The SHRs having a systolic blood pressure over 170 mmHg were divided into 7 groups, i.e., Test Groups 1 to 3 (for amlodipine besylate), Test Groups 4 to 6 (for amlodipine nicotinate) and a Control Group. Each Test Group and Control Group consisted of 6-8 SHRs (n=6-8).
The test compounds were dissolved in distilled water to prepare test solutions immediately prior to administration. The test solutions of amlodipine besylate and amlodipine nicotinate were prepared by dissolving 1, 3, and 10 mg/kg in distilled water (0.5 ml/100 g rat), respectively, and then administered orally to each Test Group. The vehicle (distilled water) was administered to Control Group.
The systolic blood pressure was measured with Multichannel 8000 (TSE Co., Germany), using a tail-cuff method. That is, the systolic blood pressures of a tail artery of each rat were measured before the administration of the test solutions and after 2, 4, 6, 8, 10, and 24 hours from the administration thereof. In order to facilitate the measurement of blood pressures, the test animals of each Group underwent warming at 37° C. for about 10 minutes before the measurements.
The results of the foregoing test were expressed by a mean percentage and standard error (mean %±S.E.M.). Statistical analysis of the test results were conducted by an unpaired t-test and ANOVA (one-way analysis of variance) with Sigma Stat program (Jandel Co., USA). The secondary evaluations were conducted by a Dunnett's multiple comparison test.

[5] = 1 mg/kg, listed as Nicotinate salt, dihydrate
[6] = listed as amlodipine nicotinate, dihydrate

CCOC(=O)C1=C(COCCN)NC(C)=C(C(=O)OC)C1c1ccccc1Cl (centres unmarked) [Amlodipine nicotinate, amlodipine nicotinate dihydrate]
pH at saturation ([1]; dihydrate): 7.2
solubility ([1]; dihydrate): 6800 µg/mL
breakdown products after stability test ([2]; dihydrate): no breakdown product
color change after photostability test (Photostability; dihydrate): no color change
hygroscopicity (state after exposure) (Hygroscopicity test; dihydrate): remained intact
Stickiness: Amlodipine(μg)/cm^2 (tablet) ([3]; dihydrate): 0.44 μg/cm^2 (tablet)
Stickiness relative to besylate ([3]; dihydrate): 36.7%
Maximal anti-hypertensive effect (change of systolic blood pressure) [4, 5]: −10.20 ± 2.71%
Intensity (maximal effect of amlodipine nicotinate to maximal effect of amlodipine besylate) ([4]; 1 mg/kg, dihydrate): about 1.46
Intensity (maximal effect of amlodipine nicotinate to maximal effect of amlodipine besylate) [4, 5]: 1.46
Intensity (maximal effect of amlodipine nicotinate to maximal effect of amlodipine besylate) ([4]; 3 mg/kg): 1.07
Maximal anti-hypertensive effect (change of systolic blood pressure) ([4]; 3 mg/kg, listed as Nicotinate salt, dihydrate): −26.8 ± 3.22%
Intensity (maximal effect of amlodipine nicotinate to maximal effect of amlodipine besylate) ([4]; 10 mg/kg): 1.06
Maximal anti-hypertensive effect (change of systolic blood pressure) ([4]; 10 mg/kg, listed as Nicotinate salt, dihydrate): −40.9 ± 2.08%
ED20 (amount necessary for 20% decrease in the blood pressure) ([4]; dihydrate): 2.19 ± 0.57 mg/kg
Intensity (reverse ratio of ED20 values relative to amlodipine besylate) ([4]; dihydrate): 1.13
ED20 (amount necessary for 20% decrease in the blood pressure) [4, 6]: 2.19 ± 0.57 mg/kg
Intensity (reverse ratio of ED20 values relative to amlodipine besylate) [4, 6]: about 1.13

CCOC(=O)C1=C(COCCN)NC(C)=C(C(=O)OC)C1c1ccccc1Cl (centres unmarked) [Amlodipine besylate, amlodipine besylate, reference compound]
pH at saturation [1]: 6.6
solubility ([1]; water, thermodynamic from solid, read-out: Solubility): 4600 µg/mL
breakdown products after stability test [2]: breakdown products
color change after photostability test (Photostability): discolored to yellow
hygroscopicity (state after exposure) (Hygroscopicity test): remained anhydrous
Stickiness relative to besylate [3]: 100.0%
Stickiness: Amlodipine(μg)/cm^2 (tablet) [3]: 1.20 μg/cm^2 (tablet)
ED20 (amount necessary for 20% decrease in the blood pressure) [4]: 2.48 ± 0.46 mg/kg
Intensity (reverse ratio of ED20 values relative to amlodipine besylate) [4]: 1.00
Maximal anti-hypertensive effect (change of systolic blood pressure) ([4]; 1 mg/kg, listed as Besylate salt): −7.0 ± 1.66%
Maximal anti-hypertensive effect (change of systolic blood pressure) ([4]; 3 mg/kg, listed as Besylate salt): −25.0 ± 1.98%
Maximal anti-hypertensive effect (change of systolic blood pressure) ([4]; 10 mg/kg, listed as Besylate salt): −38.7 ± 2.18%
effect on blood pressure ([4]; oral, 1, 3 and 10 mg/kg): dose-dependently reduced blood pressures
ED20 (amount necessary for 20% decrease in the blood pressure) ([4]; listed as amlodipine besylate): 2.48 ± 0.46 mg/kg
